What all share (type): in vivo, SD rats
Assay [1] relates to MCAO rats. As to the kind of experiment: Neurological deficits (mNSS) score in MCAO rats, oral administration (Example 21). The arrangement: scale not given here. Conditions: gavage 4 mg/kg twice per day, one value per rat (30 per group). The protocol:
(§1) Administration route: gavage administration;
Dosage: 4 mg/kg body weight, twice per day;
Administration time: gavage administration twice in the morning and evening per day (administered immediately after modeling).
A rat model of middle cerebral artery ischemia/reperfusion (MCAO/R) was created using the suture method.
Scores were evaluated using the mNSS rat neurological deficit scoring method. The neurological deficits of the experimental rats were evaluated on 14 days after modeling. • ?

Assay [2] is described as follows: Weight monitoring of MCAO rats, oral administration (Example 21). As to conditions: gavage 4 mg/kg twice per day; for Weight D 0: D 0, group mean; for Weight D 4: D 4, group mean; for Weight D 7: D 7, group mean; for Weight D 11: D 11, group mean; for Weight D 14: D 14, group mean; for Weight D 18: D 18, group mean; for Weight D 21: D 21, group mean; for Weight D 25: D 25, group mean; for Weight D 28: D 28, group mean. The protocol:
Administration route: gavage administration; Dosage: 4 mg/kg body weight, twice per day; Administration time: gavage administration twice in the morning and evening per day (administered immediately after modeling). A rat model of middle cerebral artery ischemia/reperfusion (MCAO/R) was created using the suture method. […] After surgical exposure of the carotid artery, suture was performed without ischemia-reperfusion injury; • (3) Treatment group 1: MCAO model+[…] citrate drug treatment group; • (4) Treatment group 2: MCAO model+Sildenafil citrate drug treatment group; […]

Assay [3] has as its system MCAO rats. As to the kind of experiment: Morris water maze experiment in MCAO rats, oral administration (Example 21). Conditions: gavage 4 mg/kg twice per day, 14 days water maze test. As to the method:
Morris water maze experiment: testing the learning and memory abilities of rats.
The Morris water maze experiment is conducted continuously for 6 days each time, with training conducted for the first 5 days and testing conducted on 6th day.
For each of the tests, the rats were trained four times a day at a fixed time period for the first five days (once in the first, second, third, and fourth quadrants respectively). At the beginning of the training, a platform was placed in the first quadrant, and from any starting points of the four quadrants on the pool wall, the rats were placed into the pool, facing the pool wall. The camera system records the time when the rats found the platform and their swimming path. Four training sessions involved placing rats into water from four different starting points. If the rat finds the platform or cannot find it within 60 seconds, the experimenter will guide it to the platform, rest on the platform for 10 seconds, and then proceed to the next experiment.
The rats were removed from the platform, dried with a soft cloth, and put back into the cage. Afterwards, the next experiment on the rat was performed until the numbered animals had finished swimming, and then the next set of experiments was conducted.
This experiment was conducted on the 14th day after administration. […]

Assay [4] relates to MCAO rats. As to the kind of experiment: Cerebral infarction range (TTC) in MCAO rats, oral administration (Example 23). Conditions: gavage 8 mg/kg*2, after 14 days. The protocol:
as §1
(§2) Dosage: 8 mg/kg body weight, twice a day;
(§3) Administration time: gavage administration twice a day in the morning and evening (administered immediately after modeling).
(§4) A rat model of middle cerebral artery ischemia/reperfusion (MCAO/R) was created using suture-occluded method.
(§5) The successfully modeled rats were randomly divided into 4 groups based on their scores, with an average of 20 rats in each group.
At the end of the experiment, the brain tissue of the rats was collected by bloodletting and frozen in a −20° C. freezer, and then is sliced into a thickness of 2 mm per slice. The brain tissue slices were placed in a 2% red tetrazolium (TTC) solution and incubated at 37° C. for 5 minutes. The infarcted tissue appeared white, while the non-infarcted tissue appeared red. Image J software was used to measure the area of cerebral infarction and the percentage of infarct area to the total brain area was calculated.

Assay [5] concerns MCAO rats. The assay is described as follows: Neurological function (behavioral) score in MCAO rats, oral administration (Example 23). As to conditions: gavage 8 mg/kg twice a day; after 3, 7 and 14 days administration. The protocol:
as §1, §2, §3, §4
After 2 hours of embolization, then reperfusion, according to the scoring criteria in the attached table, the degree of neurological damage in the animals was scored using a blind method. Those with significant neurological deficits (>8 points) were considered successful in modeling.
as §5
Neurological function score: evaluation was conducted before treatment, 3 days, 7 days, and 14 days after treatment.

Assay [6] concerns ischemic stroke model rats. The assay is described as follows: Neurological function (behavioral) score, ischemic stroke model rats, intravenous administration (Example 22). The arrangement: scale not given here. Conditions: 10 mg/kg iv qd 7 d, x ± s, n = 10. The text has this: (§6) On the day of the experiment, the rat was anesthetized with isoflurane gas and placed in a supine position for fixation. The skin was cut along the midline of the neck to expose the right common carotid artery. The nerves and fascia around the blood vessels from the common carotid artery bifurcation to the base of the skull were carefully removed, and the external and internal carotid arteries were separated sequentially. The MCAO suture was inserted from the free end of the external carotid artery, and the nylon suture was introduced into the internal carotid artery from the distal end of the external carotid artery. It was inserted into the Willis ring of the middle cerebral artery to effectively block the middle cerebral artery. The length of the inserted suture was 18-20 mm away from the bifurcation of the common carotid artery. Then the free end of the external carotid artery was ligated along with the endovascular suture to prevent bleeding. […] Animals were kept in cages. After 2 hours of embolization, then reperfusion, according to the scoring criteria in the attached table, the degree of neurological damage in the animals was scored using a blind method. Those with significant neurological deficits (>8 points) were considered successful in modeling. • ? Grouping and administration The animals successfully modeled were randomly divided into three groups based on their scores, namely the model control group, compound 1 AD group ([…] citrate group) 10 mg/kg, and compound 2 XD group (Sildenafil citrate group) 10 mg/kg, with 10 animals in each group. […] The endpoint of the experiment was 14 days after administration, and the dosage is detailed in the table below. This experiment was administered intravenously with a dosage of 10 mg/kg and a volume of 5 mL/kg, once per day for consecutive 7 days. Score before treatment, 3 days after treatment, 7 days after treatment, and 14 days after treatment.

Assay [7] deals with ischemic stroke model rats. The assay is described as follows: Cerebral infarction range (TTC), ischemic stroke model rats, intravenous administration (Example 22). Conditions: 10 mg/kg iv qd 7 d.
Text: as §6, with “cages.” for “cages. After 2 hours of embolization, then reperfusion, according to the scoring criteria in the attached table, the degree of neurological damage in the animals was scored using a blind method. Those with significant neurological deficits (>8 points) were considered successful in modeling. • ? Grouping and administration”, “At the end of the experiment, the brain tissue of the rats was collected by bloodletting” for “Score before treatment, 3 days after treatment, 7 days after treatment,”, “frozen in a -20° C. freezer, then are sliced with a thickness of 2 mm per slice. The brain tissue slices were placed in a 2% red tetrazolium (TTC) solution and incubated at 37° C. for 5 minutes. The infarcted tissue appeared white, while the non-infarcted tissue appeared red.” for “14 days after treatment.”

Results on two compounds are retold here after patent US20250041309A1 (ZHENAO JINYINHUA PHARMACEUTICAL, priority 2021, published 2025).

The structures appear in SMILES notation. Where “and” joins values, the source holds several entries; their conditions need not be identical. Identical values can stand only once. Counter-ions that a name gives are not always drawn.

On to `CCCc1nn(C)c2c(=O)[nH]c(-c3cc(S(=O)(=O)N4C[C@@H](C)N[C@@H](C)C4)ccc3OCC)nc12` [Aildenafil, 1-[3-(6,7-dihydro-1-methyl-7-oxy-3-n-propyl-1H-pyrazolo[4,3-d]pyrimidin-5-yl)-4-ethoxybenzenesulfonyl]-3,5-dimethylpiperazine], for which the “Score for neurological deficits (mNSS) after 14 days of administration, individual rats” value in assay [1] was 7 (7×) and 5 (3×) and 6 (7×) and 8 (6×) and 9 (4×) and 10 (2×). In addition, in assay [2], the “Weight D 0” value was 303.9 g, the “Weight D 4” value came out at 251.4 g, the “Weight D 7” value was determined as 253.8 g and the “Weight D 11” value was 274.1 g. In addition, in assay [2], the “Weight D 14” value came out at 287.2 g, the “Weight D 18” value came out at 312.0 g, the “Weight D 21” value is on record as 321.3 g and the “Weight D 25” value worked out at 341.9 g. The “Weight D 28” value in assay [2] amounted to 345.0 g. Moreover, the “average latency period, Morris water maze” value in assay [3] came to 8.93 s. The “Improvement rate % of cerebral infarction range” value in assay [4] (versus model control group) was 31.5%. The “Total cerebral infarction %” value in assay [4] (x ± s, n = 20) stood at 17.0 ± 6.7 %. The “behavioral scores compared with the model control group” value in assay [5] is listed as “significant improvement”.

For `CCCc1nn(C)c2c(=O)[nH]c(-c3cc(S(=O)(=O)N4CCN(C)CC4)ccc3OCC)nc12` [Sildenafil citrate], in assay [1], the “Score for neurological deficits (mNSS) after 14 days of administration, individual rats” value is 8 (10×) and 9 (8×) and 7 (7×) and 10 (3×) and 5 and 6. In assay [2], the “Weight D 0” value is on record as 297.7 g, the “Weight D 4” value turned out to be 251.4 g, the “Weight D 7” value was determined as 249.0 g and the “Weight D 11” value worked out at 266.9 g. Moreover, in assay [2], the “Weight D 14” value was 282.4 g, the “Weight D 18” value is listed as 307.6 g, the “Weight D 21” value stood at 318.3 g and the “Weight D 25” value was found to be 339.6 g. The “Weight D 28” value in assay [2] was found to be 345.9 g. Also, the “behavioral score, 3 days after medication” value in assay [6] (3 days after medication) came to 7.4 ± 1.4. The “behavioral score, 7 days after medication” value in assay [6] (7 days after medication) worked out at 6.1 ± 1.7. In addition, the “behavioral score, 14 days after medication” value in assay [6] (14 days after medication) is 4.9 ± 1.7. Moreover, in assay [6] (before medication), the “behavioral score, Before medication” value is 9.6 ± 0.5. Besides, the “average latency period, Morris water maze” value in assay [3] was found to be 16.88 s. Moreover, the “Total cerebral infarction %” value in assay [7] (14 days after administration, x ± s, n = 10) turned out to be 21.5 ± 8.6%. The “Improvement rate % of cerebral infarction range” value in assay [7] (14 days, versus model control group) is recorded as 14.0%.
